Type in all cases: cell-based
For test [1], the target named is T1, PAR2 (HT-29 cells) (Homo sapiens, UniProt P55085).
T1 construct: host or cells: HT-29
T1 sequence (P55085 26-397): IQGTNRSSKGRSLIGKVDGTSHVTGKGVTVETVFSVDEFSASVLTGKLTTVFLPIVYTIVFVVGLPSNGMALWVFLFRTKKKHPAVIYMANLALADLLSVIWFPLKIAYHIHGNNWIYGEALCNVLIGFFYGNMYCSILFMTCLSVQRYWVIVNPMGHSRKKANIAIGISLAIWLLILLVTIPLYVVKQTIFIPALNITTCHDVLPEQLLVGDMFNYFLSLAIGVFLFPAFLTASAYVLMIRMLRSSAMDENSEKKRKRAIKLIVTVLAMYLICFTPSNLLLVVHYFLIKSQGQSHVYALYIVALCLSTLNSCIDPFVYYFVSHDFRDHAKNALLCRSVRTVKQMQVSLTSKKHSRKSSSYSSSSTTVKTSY
The experiment in a line: Ca FLIPR TETRA assay, ANTAGONIST mode, activator 8 μM SLIGKV. As to conditions: HT-29 cells, activator 8 μM SLIGKV; maximal antagonist concentration per Method (A: 0.1, 1 or 2 μM; B: 50 μM). In outline:
(§1)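 HT-29 cells in 1% FBS/McCoy's overnight, loaded with FLIPR Calcium 5 dye (45 min 37 °C, 15 min r.t.); compounds added and read for intrinsic Ca2+ activation, then after 30 min r.t. stimulated with fixed activator: 8 μM SLIGKV, 0.6 μM UTP, 1 U/mL thrombin or 3.1 U/mL trypsin (final).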

Test [2] concerns the target T1, PAR2 (HT-29 cells). The experiment in a line: Ca FLIPR TETRA assay, ANTAGONIST mode, activator 3.1 U/mL trypsin. The following applies: for IC50: HT-29 cells, activator 3.1 U/mL trypsin, maximal antagonist concentration per Method (A: 0.1, 1 or 2 μM; B: 50 μM). In a few lines:
as §1

Test [3] deals with Thrombin-stimulated Ca2+ response in HT-29 cells. The experiment in a line: Ca FLIPR TETRA assay, ANTAGONIST mode, activator 1 U/mL Thrombin. The following applies: Homo sapiens; HT-29 cells, activator 1 U/mL Thrombin. In a few lines: as §1
Test [4] has as its system UTP-stimulated Ca2+ response in HT-29 cells. In words: Ca FLIPR TETRA assay, ANTAGONIST mode, activator 0.6 μM UTP. The following applies: Homo sapiens; HT-29 cells, activator 0.6 μM UTP. In a few lines:
as §1

Take `C[C@H]1CN(C(=O)c2cc3nc(-c4ccc(F)cc4)cc(C4(C)CC4)c3o2)CCN1C(=O)C1(O)CCOCC1` [Example I-121]: the IC50 (commonly the concentration that gives 50% inhibition) on PAR2 (HT-29 cells) [1] amounted to 1.1 µM; at PAR2 (HT-29 cells) [2], 1.8 µM; in test [3], 5.5 µM; in test [4], 6.3 µM.
For `C[C@H]1CN(C(=O)c2cc3nc(-c4ccc(F)cc4)cc(C4(C)CC4)c3o2)CCN1C(=O)c1ccn[nH]1` [Example I-122], in that order: 1 µM, 0.33 µM, 1.9 µM and 1.6 µM.
For `Cc1cc(C(=O)N2CCN(C(=O)c3cc4nc(-c5ccc(F)cc5)cc(C5(C)CC5)c4o3)C[C@@H]2C)n(C)n1` [Example I-123], in that order: 0.34 µM, 0.93 µM, 4.5 µM and 4.1 µM.
For the compound `CC(C)c1nc(-c2ccc(F)cc2)nc2cc(C(=O)N3CCNC(=O)C3(C)C)oc12` [Example I-124], the concentration for half-maximal inhibition (IC50) at PAR2 (HT-29 cells) [1] was found to be 0.94 µM; on PAR2 (HT-29 cells) [2], 1.9 µM; in test [3] it was 24 µM; in test [4], 23 µM.
For `CC(C)c1nc(-c2ccc(F)cc2)nc2cc(C(=O)N3CCN(C(=O)[C@H](O)CC(C)(C)C)[C@@H](C)C3)oc12` [Example I-125], in that order: 0.26 µM, 1.9 µM, 32 µM and 20 µM.
For `CC(C)c1nc(-c2ccc(F)cc2)nc2cc(C(=O)N3CCN(C(=O)[C@H](O)CC(C)(C)C)CC3(C)C)oc12` [Example I-126] the same measures were 0.11 µM, 0.067 µM, 13 µM and 22 µM.
Regarding `CC1(c2nc(-c3ccc(F)cc3)nc3cc(C(=O)N4CCNC(=O)C4(C)C)oc23)CC1` [Example I-127], the 50% inhibitory concentration (IC50) on PAR2 (HT-29 cells) [1] was 0.74 µM; in test [3], greater than 50 µM; in test [4], greater than 50 µM. Also, the “Trypsin, % @ 50” value on PAR2 (HT-29 cells) [2] (@ 50 (μM)) came to 49% @ 50.
For `C[C@H]1CN(C(=O)c2cc3nc(-c4ccc(F)cc4)nc(C4(C)CC4)c3o2)CCN1C(=O)[C@H](O)CC(C)(C)C` [Example I-128], the half-inhibitory concentration (IC50) at PAR2 (HT-29 cells) [1] was 0.54 µM; on PAR2 (HT-29 cells) [2] it was 5.3 µM; in test [3] it was greater than 50 µM; in test [4] it was 44 µM.
In the case of `CC(C)(C)C[C@@H](O)C(=O)N1CCN(C(=O)c2cc3nc(-c4ccc(F)cc4)nc(C4(C)CC4)c3o2)C(C)(C)C1` [Example I-129], the half-maximal inhibitory concentration (IC50) at PAR2 (HT-29 cells) [1] was 0.25 µM; on PAR2 (HT-29 cells) [2] it was 0.27 µM; in test [3] it was greater than 50 µM; in test [4], greater than 50 µM.
Consider `CC(C)c1cc(-c2ccc(F)cc2)nc2sc(C(=O)N3CCN(C(=O)[C@H](O)CC(C)(C)C)[C@@H](C)C3)nc12` [Example I-130], for which the IC50 is 2.1 µM on PAR2 (HT-29 cells) [1], 2.6 µM on PAR2 (HT-29 cells) [2], greater than 35 µM in test [3] and 30 µM in test [4].
Consider `CC(C)c1cc(-c2ccc(F)cc2)nc2sc(C(=O)N3CCNC(=O)C3(C)C)nc12` [Example I-131], for which the concentration for half-maximal inhibition (IC50) was determined as 0.066 µM at PAR2 (HT-29 cells) [1], 0.068 µM on PAR2 (HT-29 cells) [2], 19 µM in test [3] and 12 µM in test [4].
For `CC(C)c1cc(-c2ccc(F)cc2)nc2sc(C(=O)N3CCN(C(=O)[C@H](O)CC(C)(C)C)CC3(C)C)nc12` [Example I-132], the IC50 at PAR2 (HT-29 cells) [1] was 0.0064 µM; on PAR2 (HT-29 cells) [2], 0.009 µM; in test [3], greater than 50 µM; in test [4], greater than 50 µM.
As to `CC(C)c1cc(-c2ccc(F)cc2)nc2oc(C(=O)N3CCNC(=O)C3(C)C)nc12` [Example I-133], the IC50 on PAR2 (HT-29 cells) [1] was 5.9 µM; at PAR2 (HT-29 cells) [2], 7.5 µM; in test [3], 20 µM; in test [4], 20 µM.
Turning to `CC(C)c1cc(-c2ccc(F)cc2)nc2cc(C(=O)N3CCN(C(=O)[C@H]4C[C@](O)(C(F)(F)F)C4)CC3(C)C)oc12` [Example I-134], the IC50 at PAR2 (HT-29 cells) [1] is 0.0006 µM; at PAR2 (HT-29 cells) [2] it was 0.0009 µM; in test [3], greater than 1 µM; in test [4], greater than 1 µM.
On to `CC(C)c1cc(-c2ccc(F)cc2)nc2cc(C(=O)N3CCN(C(=O)[C@H]4C[C@@H](O)C4)CC3(C)C)oc12` [Example I-135], for which the IC50 on PAR2 (HT-29 cells) [1] was 0.024 µM; at PAR2 (HT-29 cells) [2] it was 0.042 µM; in test [3], greater than 1 µM; in test [4], greater than 1 µM.
Consider `CC(C)c1cc(-c2ccc(F)cc2)nc2cc(C(=O)N3CCN(C(=O)[C@H]4C[C@@](C)(O)C4)CC3(C)C)oc12` [Example I-136], for which the 50% inhibitory concentration (IC50) was 0.0064 µM at PAR2 (HT-29 cells) [1], 0.0074 µM on PAR2 (HT-29 cells) [2], greater than 1 µM in test [3] and greater than 1 µM in test [4].
As for `CC(C)c1cc(-c2ccc(F)cc2)nc2cc(C(=O)N3CCN(C(=O)[C@H]4C[C@@](O)(C(F)(F)F)C4)CC3(C)C)oc12` [Example I-137], the concentration for half-maximal inhibition (IC50) on PAR2 (HT-29 cells) [1] came out at 0.0078 µM; at PAR2 (HT-29 cells) [2] it was 0.0094 µM; in test [3], 0.5 µM; in test [4], 0.83 µM.
Take `Cc1cc(C(=O)N2CCN(C(=O)c3cc4nc(-c5ccc(F)cc5)cc(C(C)C)c4o3)C(C)(C)C2)on1` [Example I-138]: the IC50 on PAR2 (HT-29 cells) [1] is 0.002 µM; at PAR2 (HT-29 cells) [2], 0.0022 µM; in test [3] it was greater than 1 µM; in test [4], greater than 1 µM.
For `CC(C)c1cc(-c2ccc(F)cc2)nc2cc(C(=O)N3CCN(C(=O)c4ccnn4C)CC3(C)C)oc12` [Example I-139], the IC50 at PAR2 (HT-29 cells) [1] was 0.024 µM; on PAR2 (HT-29 cells) [2], 0.033 µM; in test [3], greater than 1 µM; in test [4] it was greater than 1 µM.
Regarding `Cc1cnoc1C(=O)N1CCN(C(=O)c2cc3nc(-c4ccc(F)cc4)cc(C(C)C)c3o2)C(C)(C)C1` [Example I-140], the concentration for half-maximal inhibition (IC50) is 0.0048 µM at PAR2 (HT-29 cells) [1], 0.0035 µM at PAR2 (HT-29 cells) [2], greater than 1 µM in test [3] and greater than 1 µM in test [4].
For the compound `CC(C)c1cc(-c2ccc(F)cc2)nc2cc(C(=O)N3CCN(C(=O)c4ccn(C)n4)CC3(C)C)oc12` [Example I-141], the IC50 at PAR2 (HT-29 cells) [1] is 0.0032 µM; at PAR2 (HT-29 cells) [2], 0.0042 µM; in test [3] it was greater than 1 µM; in test [4], greater than 1 µM.
For the compound `CC(C)c1cc(-c2ccc(F)cc2)nc2cc(C(=O)N3CCN(C(=O)c4nnc[nH]4)CC3(C)C)oc12` [Example I-142], the concentration for half-maximal inhibition (IC50) was 0.0072 µM at PAR2 (HT-29 cells) [1], 0.013 µM on PAR2 (HT-29 cells) [2], greater than 1 µM in test [3] and greater than 1 µM in test [4].
Turning to `C=C(C)c1cc(-c2ccc(F)cc2)nc2cc(C(=O)N3CCN(C(=O)[C@H]4C[C@](O)(C(F)(F)F)C4)CC3(C)C)oc12` [Example I-143], the half-inhibitory concentration (IC50) at PAR2 (HT-29 cells) [1] was 0.0021 µM; at PAR2 (HT-29 cells) [2], 0.0022 µM; in test [3], greater than 1 µM; in test [4], greater than 1 µM.
As for `CC(C)c1cc(-c2ccc(F)cc2)nc2cc(C(=O)N3CCN(S(=O)(=O)c4cn(C)cn4)CC3(C)C)oc12` [Example I-144], the half-maximal inhibitory concentration (IC50) is 0.024 µM at PAR2 (HT-29 cells) [1], 0.031 µM at PAR2 (HT-29 cells) [2], greater than 1 µM in test [3] and greater than 1 µM in test [4].
As for `Cc1ncc(S(=O)(=O)N2CCN(C(=O)c3cc4nc(-c5ccc(F)cc5)cc(C(C)C)c4o3)C(C)(C)C2)n1C` [Example I-145], the IC50 is 0.04 µM at PAR2 (HT-29 cells) [1], 0.042 µM at PAR2 (HT-29 cells) [2], greater than 1 µM in test [3] and greater than 1 µM in test [4].
Take `Cc1nn(C)cc1S(=O)(=O)N1CCN(C(=O)c2cc3nc(-c4ccc(F)cc4)cc(C(C)C)c3o2)C(C)(C)C1` [Example I-146]: the IC50 at PAR2 (HT-29 cells) [1] was 0.013 µM; at PAR2 (HT-29 cells) [2] it was 0.021 µM; in test [3], greater than 1 µM; in test [4] it was greater than 1 µM.
